{"source": "patent US12186402B2", "about": "“Polymer materials for delivery of short-chain fatty acids to the intestine for applications in human health and treatment of disease” (The University of Chicago, priority 2017, dated 2025)", "system": "allergy to peanuts induced in mice", "experiment": "Induced peanut allergy model: challenge with peanut protein; core body temperature, peanut-specific IgE, IgG1, mMCP-1", "format": "in vivo, mouse", "data": [{"smiles": "CCCC(=O)[O-].[Na+]", "note": "[sodium butyrate]", "values": [{"measurement": "physiological markers and symptoms of an allergic reaction", "setting": "Example 8: allergic mice, 2.83 mg per g body weight daily by oral gavage, FIG. 17", "result": "not effective"}, {"measurement": "core body temperature over time after challenge with peanut protein (protection)", "setting": "FIG. 19, allergic mice, daily oral treatment", "result": "no protection"}]}]}
